Legend:
hepatocytes = test: Biological activity of released hEGF in in-vitro cell culture; format: cell-based; conditions: subsequent studies using hepatocytes
xanthine oxidase = biological target: T1, xanthine oxidase (Bos taurus, UniProt P80457); test: Enzyme activity of xanthine oxidase in the device piece (Sigma Enzymatic Assay of Superoxide Dismutase protocol); format: biochemical; conditions: 0.01 unit solution
T1 construct: purchased Sigma Chemical Company, St. Louis Mo
Description: A single cylinder piece, prepared as described above in Example 1, was added to a reaction chamber in a spectrophotometer containing xanthine, cytochrome C and other reactants according to previously described superoxide dismutase protocol (Sigma Quality Control Test Procedure EC 1.15.1.1 “Enzymatic Assay of Superoxide Dismutase”) enzyme activity of the enzyme xanthine oxidase in the piece was calculated at 0.0005 delta absorbance min (absorbance measured at 550 mm where no enzyme activity produces 0.00000 change in absorbance). In comparison to a 0.01 unit solution of xanthine oxidase, which produced 0.0250 delta absorbance/min, the activity of the xanthine oxidase in the piece equaled 1% of the control solution in a time period of only 3 minutes.

T1 sequence (P80457 2-1332 limits assumed): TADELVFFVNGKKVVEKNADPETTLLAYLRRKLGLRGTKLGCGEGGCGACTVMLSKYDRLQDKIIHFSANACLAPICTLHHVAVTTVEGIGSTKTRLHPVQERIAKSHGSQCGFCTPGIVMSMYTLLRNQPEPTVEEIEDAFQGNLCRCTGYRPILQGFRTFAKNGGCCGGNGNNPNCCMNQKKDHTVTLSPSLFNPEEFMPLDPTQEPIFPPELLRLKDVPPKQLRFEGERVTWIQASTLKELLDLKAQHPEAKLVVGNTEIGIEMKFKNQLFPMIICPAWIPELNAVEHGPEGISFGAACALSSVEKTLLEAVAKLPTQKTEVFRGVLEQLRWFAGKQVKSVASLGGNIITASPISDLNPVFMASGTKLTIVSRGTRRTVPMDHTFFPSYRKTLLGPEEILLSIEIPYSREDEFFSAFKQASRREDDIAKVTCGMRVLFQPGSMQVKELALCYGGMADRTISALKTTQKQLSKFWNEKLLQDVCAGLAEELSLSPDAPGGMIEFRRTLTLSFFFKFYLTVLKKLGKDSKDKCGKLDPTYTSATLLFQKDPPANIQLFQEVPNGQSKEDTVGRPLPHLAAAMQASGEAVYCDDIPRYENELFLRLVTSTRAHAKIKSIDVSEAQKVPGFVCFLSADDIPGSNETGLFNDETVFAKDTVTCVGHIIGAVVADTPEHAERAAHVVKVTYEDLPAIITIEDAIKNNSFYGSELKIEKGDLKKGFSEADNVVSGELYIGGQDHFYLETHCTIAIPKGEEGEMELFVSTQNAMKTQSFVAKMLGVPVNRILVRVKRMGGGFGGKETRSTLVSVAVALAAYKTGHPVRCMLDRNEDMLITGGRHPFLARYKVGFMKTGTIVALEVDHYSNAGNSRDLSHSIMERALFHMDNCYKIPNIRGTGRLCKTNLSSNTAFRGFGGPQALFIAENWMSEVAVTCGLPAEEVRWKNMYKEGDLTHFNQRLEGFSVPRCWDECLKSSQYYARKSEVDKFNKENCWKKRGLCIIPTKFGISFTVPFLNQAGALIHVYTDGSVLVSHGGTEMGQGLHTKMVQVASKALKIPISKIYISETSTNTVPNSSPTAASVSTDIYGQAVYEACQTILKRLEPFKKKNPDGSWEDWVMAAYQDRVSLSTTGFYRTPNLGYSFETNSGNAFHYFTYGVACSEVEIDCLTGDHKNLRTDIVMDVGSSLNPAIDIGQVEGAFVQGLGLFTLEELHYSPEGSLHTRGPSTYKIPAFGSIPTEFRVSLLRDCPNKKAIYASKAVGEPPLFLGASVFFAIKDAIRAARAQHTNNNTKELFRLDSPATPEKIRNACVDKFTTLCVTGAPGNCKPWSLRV

| Substance | biological activity of released hEGF (hepatocytes) | rate produced by xanthine oxidase solution (xanthine oxidase) [delta absorbance/min] |
| --- | --- | --- |
| hEGF: recombinant human epidermal growth factor (R&D System) (NSDSECPLSHDGYCLHDGVCMYIEALDKYACNCVVGYIGERCQYRDLKWWELR; not fully specified; Epidermal growth factor; UniProt P01133 971-1023, looked up) | has biological activity |  |
| xanthine oxidase |  | 0.0250 |
